The test system of this experiment is ischemic skeletal muscle (gastrocnemius-plantaris-soleus group). The experiment in a line: Contractility of the skeletal muscle after chronic ischemia (PVD fatigue model). It counts as in vivo, male Wistar rats. To be noted: PVD fatigue model: 6 mg/kg po, 7 days; after 5 minutes of stimulation, 24 h after last administration. The text has this: B) Action on the contractility of the skeletal muscle after chronic ischemia Ideas about the pathophysiology of chronic peripheral arterial occlusive disease have changed in recent years as interest has shifted increasingly from the macrocirculation to the microcirculation=disorders in the microcirculation manifest themselves in an inadequate supply of substrates with consequent tissue ischemia, which in turn leads to impairment of the function of the extremity in question. The compounds according to the invention were tested for their function-improving action by means of measurements of the contractile force in the ischemic skeletal muscle using the experimental set-up described below. The experimental animals used were male Wistar rats with a body weight of 380 to 410 g. With the animals under hexobarbital narcosis (®[…] Sodium, 200 mg/kg body weight ip), a monolateral ligature of the right femoral artery was made in the groin. After dusting with penicillin sulfonamide powder for the antibiotic protection of the wound, the small surgical wound was closed and the animals were observed continuously until fully awake. One week later, oral administration of the substance with a stomach tube was started (6 mg/kg body weight, carboxymethyl cellulose sodium suspension) and was continued for 7 days (single administration per day, ca. 7.30 am to 8.30 am). The contractile force was measured 24 h after the last administration of the substance so as to exclude acute effects, the experimental protocol being as follows: The animals were narcotized with ®Nembutal (pentobarbital sodium, 35 mg/kg body weight ip), the muscles of the extremity in question were exposed (gastrocnemius-plantaris-soleus group) and the tendon was connected to a force transducer with a preload of 50 g. A superfusion with isotonic solution (37° C.) served to avoid dehydration and cooling. The mean arterial blood pressure was recorded continuously via a cannulated carotid artery with the aid of a hemodynamometer in order to monitor the physiological state of the animals during the experiment. All the animals breathed spontaneously through an inserted endotracheal tube. After these preparations had been made, the muscle was caused to contract by direct electrical stimulation (2.5 mA, 2 Hz) (Stimulator I, Hugo Sachs, Federal Republic of Germany). The measurement parameter used for the action of the preparation was the absolute contractile force in grams after 5 minutes of stimulation. The change in the contractile force in comparison with the ischemic control muscle is given as the percentage change at this time (see Table 2).
Consider `Cl.Cn1c(=O)[nH]c2c(c1=O)CN(Cc1ccccc1)CC2` [Compound 2, 6-Benzyl-3-methyl-5,6,7,8-tetrahydro-1H-pyrido[4,3-d]-pyrimidine-2,4-dione hydrochloride], for which the “Change in the contractile force in comparison with the ischemic control muscle” value (from here on “Change in the contractile force”) is listed as “+136%”.

As to `Cn1c(=O)[nH]c2c(c1=O)CN(CCO)CC2` [Compound 8, 6-(2-Hydroxyethyl)-3-methyl-5,6,7,8-tetrahydro-1H-pyrido[4,3-d]pyrimidine-2,4-dione], the “Change in the contractile force” value is “+151%”.

Regarding `CCn1c2c(c(=O)n(C)c1=O)CN(Cc1ccccc1Cl)CC2` [Compound 16], the “Change in the contractile force” value is “+148%”.

With `Cn1c(=O)[nH]c2c(c1=O)CN(C(C(=O)O)c1ccccc1Cl)CC2` (stereo not shown) [Compound 20], the “Change in the contractile force” value was “+137%”.

As to `O=c1[nH]c2c(c(=O)[nH]1)CN(Cc1ccccc1)CC2` [Compound 23], the “Change in the contractile force” value was “+129%”.

Consider `C=C(C)CN1CCc2[nH]c(=O)n(C)c(=O)c2C1` [Compound 26], for which the “Change in the contractile force” value is “+114%”.

For the compound `Cn1c(=O)[nH]c2c(c1=O)CN(CCCO)CC2` [Compound 37], the “Change in the contractile force” value is on record as “+45%”.
